Reference: patent US20160251341A1, “SUBSTITUTED TRIAZOLE COMPOUNDS AS SERINE PROTEASE INHIBITORS” (Verseon Corporation, priority 2015, published 2016)
pIC50: −log10 of the molar value.

test system: malignant breast tumors; assay: not given; details: at 4 weeks, treated mice; cited from earlier work

SMILES	reduction in tumor volume	weight loss
CCCCCCOC(=O)NC(=N)c1ccc(NCc2nc3cc(C(=O)N(CCC(=O)OCC)c4ccccn4)ccc3n2C)cc1 [dabigatran etexilate]	50%	no weight loss

same assay, conditions: treated mice; cited from earlier work

SMILES	reduced tumor cells in the blood and liver micrometastases
CCCCCCOC(=O)NC(=N)c1ccc(NCc2nc3cc(C(=O)N(CCC(=O)OCC)c4ccccn4)ccc3n2C)cc1 [dabigatran etexilate]	50-60%

biological target: T1, Human thrombin (Homo sapiens, UniProt P00734); assay: Thrombin protease inhibition assay (chromogenic substrate S-2238); format: biochemical; details: 3 nM human thrombin, 125 μM S-2238, 10 min pre-incubation, RT
T1 construct: purchased Haematologic Technologies Inc
Procedure: The thrombin activity reported herein (e.g., Table A) was obtained as follows. Human thrombin was obtained from Haematologic Technologies Inc. The chromogenic substrate S-2238 was obtained from DiaPharma. Thrombin was assayed in buffer containing 0.05 M Tris (pH 7.4), 0.015 M NaCl and 0.01% PEG-8000. The final concentration of enzyme used was 3 nM thrombin. The final concentration of substrate used was 125 μM S-2238 for thrombin. All assays were performed in 96-well microtiter plates at room temperature (RT). The enzyme and inhibitor were pre-incubated for 10 minutes then substrate was added and read at 405 nm in a SpectraMax Plus Spectrophotometer (Molecular Devices). Inhibitor IC50 values were determined by adding test compound as ten point, three-fold serial dilutions in buffer solution, as known in the art. The plate was read at 10 minutes after substrate addition. The IC50 was calculated by plotting the percent (%) inhibition against compound concentration and fitting the data to a constrained four parameter sigmoidal curve, as known in the art.

SMILES	pIC50
O=C(c1ccoc1)n1nc(C2CCOCC2)nc1NCc1ccc(Cl)s1 [Entry 51, N-[(5-chlorothiophen-2-yl)methyl]-1-(furan-3-carbonyl)-3-(oxan-4-yl)-1H-1,2,4-triazol-5-amine]	≥ 7.00
O=C(c1ccoc1)n1nc(C2CCCO2)nc1NCc1ccc(Cl)s1 (centres unmarked) [Entry 52, N-[(5-chlorothiophen-2-yl)methyl]-1-(furan-3-carbonyl)-3-(oxolan-2-yl)-1H-1,2,4-triazol-5-amine]	≥ 7.00
O=C(c1ccoc1)n1nc(C2CCOC2)nc1NCc1ccc(Cl)s1 (centres unmarked) [Entry 53, N-[(5-chlorothiophen-2-yl)methyl]-1-(furan-3-carbonyl)-3-(oxolan-3-yl)-1H-1,2,4-triazol-5-amine]	≥ 7.00
COc1ccccc1C(=O)n1nc(C2CN(S(C)(=O)=O)C2)nc1NCc1ccc(Cl)s1 [Entry 54, N-[(5-chlorothiophen-2-yl)methyl]-3-(1-methanesulfonylazetidin-3-yl)-1-(2-methoxybenzoyl)-1H-1,2,4-triazol-5-amine]	≥ 7.00
COc1ccccc1C(=O)n1nc(C2CCN(S(C)(=O)=O)CC2)nc1NCc1ccc(Cl)s1 [Entry 55, N-[(5-chlorothiophen-2-yl)methyl]-3-(1-methanesulfonylpiperidin-4-yl)-1-(2-methoxybenzoyl)-1H-1,2,4-triazol-5-amine]	≥ 7.00
COC1CCCCC1c1n[nH]c(NCc2ccc(Cl)s2)n1 (centres unmarked) [Entry 56, N-[(5-chlorothiophen-2-yl)methyl]-3-(2-methoxycyclohexyl)-1H-1,2,4-triazol-5-amine]	5.00 to 6.00
O=C(c1ccsc1)n1nc(C2CCOCC2)nc1NCc1ccc(Cl)s1 [Entry 57, N-[(5-chlorothiophen-2-yl)methyl]-3-(oxan-4-yl)-1-(thiophene-3-carbonyl)-1H-1,2,4-triazol-5-amine]	≥ 7.00
Clc1ccc(CNc2nc(C3CCOCC3)n[nH]2)s1 [Entry 58, N-[(5-chlorothiophen-2-yl)methyl]-3-(oxan-4-yl)-1H-1,2,4-triazol-5-amine]	≤ 4.00
O=C(c1ccsc1)n1nc(C2CCCO2)nc1NCc1ccc(Cl)s1 (centres unmarked) [Entry 59, N-[(5-chlorothiophen-2-yl)methyl]-3-(oxolan-2-yl)-1-(thiophene-3-carbonyl)-1H-1,2,4-triazol-5-amine]	≥ 7.00
Clc1ccc(CNc2nc(C3CCCO3)n[nH]2)s1 (centres unmarked) [Entry 60, N-[(5-chlorothiophen-2-yl)methyl]-3-(oxolan-2-yl)-1H-1,2,4-triazol-5-amine]	≤ 4.00
O=C(c1ccsc1)n1nc(C2CCOC2)nc1NCc1ccc(Cl)s1 (centres unmarked) [Entry 61, N-[(5-chlorothiophen-2-yl)methyl]-3-(oxolan-3-yl)-1-(thiophene-3-carbonyl)-1H-1,2,4-triazol-5-amine]	≥ 7.00
Clc1ccc(CNc2nc(C3CCOC3)n[nH]2)s1 (centres unmarked) [Entry 62, N-[(5-chlorothiophen-2-yl)methyl]-3-(oxolan-3-yl)-1H-1,2,4-triazol-5-amine]	≤ 4.00
COc1ccccc1C(=O)n1nc(C2CN(S(=O)(=O)C3CCCCC3)C2)nc1NCc1ccc(Cl)s1 [Entry 63, N-[(5-chlorothiophen-2-yl)methyl]-3-[1-(cyclohexanesulfonyl)azetidin-3-yl]-1-(2-methoxybenzoyl)-1H-1,2,4-triazol-5-amine]	≥ 7.00
COc1ccccc1C(=O)n1nc(C2CCN(S(=O)(=O)C3CCCCC3)CC2)nc1NCc1ccc(Cl)s1 [Entry 64, N-[(5-chlorothiophen-2-yl)methyl]-3-[1-(cyclohexanesulfonyl)piperidin-4-yl]-1-(2-methoxybenzoyl)-1H-1,2,4-triazol-5-amine]	≥ 7.00

Second part, the molecule after the results:

pIC50	SMILES
5.00 to 6.00	COc1ccccc1C(=O)n1nc(C2CCOCC2)nc1NCc1ccccc1 [Entry 65, N-benzyl-1-(2-methoxybenzoyl)-3-(oxan-4-yl)-1H-1,2,4-triazol-5-amine]
≤ 4.00	c1ccc(CNc2nc(C3CCOCC3)n[nH]2)cc1 [Entry 66, N-benzyl-3-(oxan-4-yl)-1H-1,2,4-triazol-5-amine]
≤ 4.00	CC(C)(C)OC(=O)N1CCCC1c1n[nH]c(N)n1 (centres unmarked) [Entry 67, tert-butyl 2-(5-amino-1H-1,2,4-triazol-3-yl)pyrrolidine-1-carboxylate]
6.00 to 7.00	COc1ccccc1C(=O)n1nc(C2CCCN2C(=O)OC(C)(C)C)nc1NCc1ccc(Cl)s1 (centres unmarked) [Entry 68, tert-butyl 2-(5-[(5-chlorothiophen-2-yl)methyl]amino-1-(2-methoxybenzoyl)-1H-1,2,4-triazol-3-yl)pyrrolidine-1-carboxylate]
≤ 4.00	CC(C)(C)OC(=O)N1CCCC1c1n[nH]c(NCc2ccc(Cl)s2)n1 (centres unmarked) [Entry 69, tert-butyl 2-(5-[(5-chlorothiophen-2-yl)methyl]amino-1H-1,2,4-triazol-3-yl)pyrrolidine-1-carboxylate]
≤ 4.00	CC(C)(C)OC(=O)N1CC(c2n[nH]c(N)n2)C1 [Entry 70, tert-butyl 3-(5-amino-1H-1,2,4-triazol-3-yl)azetidine-1-carboxylate]
≥ 7.00	COc1ccccc1C(=O)n1nc(C2CN(C(=O)OC(C)(C)C)C2)nc1NCc1ccc(Cl)s1 [Entry 71, tert-butyl 3-(5-[(5-chlorothiophen-2-yl)methyl]amino-1-(2-methoxybenzoyl)-1H-1,2,4-triazol-3-yl)azetidine-1-carboxylate]
≤ 4.00	CC(C)(C)OC(=O)N1CC(c2n[nH]c(NCc3ccc(Cl)s3)n2)C1 [Entry 72, tert-butyl 3-(5-[(5-chlorothiophen-2-yl)methyl]amino-1H-1,2,4-triazol-3-yl)azetidine-1-carboxylate]
≤ 4.00	CC(C)(C)OC(=O)N1CCC(c2n[nH]c(N)n2)CC1 [Entry 73, tert-butyl 4-(5-amino-1H-1,2,4-triazol-3-yl)piperidine-1-carboxylate]
≥ 7.00	COc1ccccc1C(=O)n1nc(C2CCN(C(=O)OC(C)(C)C)CC2)nc1NCc1ccc(Cl)s1 [Entry 74, tert-butyl 4-(5-[(5-chlorothiophen-2-yl)methyl]amino-1-(2-methoxybenzoyl)-1H-1,2,4-triazol-3-yl)piperidine-1-carboxylate]
≤ 4.00	CC(C)(C)OC(=O)N1CCC(c2n[nH]c(NCc3ccc(Cl)s3)n2)CC1 [Entry 75, tert-butyl 4-(5-[(5-chlorothiophen-2-yl)methyl]amino-1H-1,2,4-triazol-3-yl)piperidine-1-carboxylate]
≥ 7.00	COc1ccccc1C(=O)n1nc(C2CCN(C(=O)OC(C)(C)C)CC2)nc1NCc1ccccc1 [Entry 76, tert-butyl 4-[5-(benzylamino)-1-(2-methoxybenzoyl)-1H-1,2,4-triazol-3-yl]piperidine-1-carboxylate]
